From US20110200535A1, “DAA-PYRIDINE AS PERIPHERAL BENZODIAZEPINE RECEPTOR LIGAND FOR DIAGNOSTIC IMAGING AND PHARMACEUTICAL TREATMENT” (BAYER SCHERING PHARMA AKTIENGESELLSCHAFT, priority 2008, published 2011)
Where “and” joins values, the source holds several entries; their conditions need not be identical. Equal entries are not always repeated.

What was measured:
Assay type in all cases: in vivo
[1] = Biodistribution of [^18F]-radioactivity in healthy male NMRI mice after intravenous injection (gamma counter); details: normal mice, i.v., decay corrected
Method: (§1) The biodistribution of [^18F]-2d and [^18F]-5d was investigated in healthy male NMRI mice (28.3-35.6 g body weight, n=3 animals per time point) at 2, 5, 30, 60 and 180/240 min after intravenous injection of 0.264 MBq [^18F]-2d and 0.268 MBq [^18F]-5d per animal, respectively. Until the indicated time points urine and faeces were quantitatively collected. At the respective time points the mice were sacrificed and the tissues were removed. [^18F]-radioactivity was analyzed in a gamma counter (Tab. 1.1, 2.1 and 1.2, 2.2).

[2] = Excretion of [^18F]-radioactivity via urine and faeces in normal mice (gamma counter); details: i.v., decay corrected
Method: as §1

[3] = target: T1, peripheral benzodiazepine receptor (PBR) (Rattus norvegicus, UniProt P16257); experiment: Ex vivo autoradiography of brain sections, rat kainic acid induced epilepsy model; details: for Hipp/Cereb ratio (signal-to-background ratio, hippocampus/cerebellum): rat kainic acid model, 30 min ex vivo autoradiography
T1 construct: from tissue; host or cells: rat brain (hippocampus, cerebellum) after i.v. tracer injection
Method: Using a rat kainic acid induced epilepsy model and respective sham controls the accumulation of [^18F]-2d and [^18F]-5d was visualized ex vivo. In brief, epilepsy was induced in rats by injecting kainic acid i.p. At day eight after the start of the kainic acid treatment [^18F]-2d and [^18F]-5d were injected into the tail vein of the rats and their sham treated controls (PBS instead of kainic acid) at a dose of 25.8-35.8 MBq (approximately 1.0 μg) per rat. Thirty minutes after intravenous injection the rats were sacrificed, the brains were taken out, snap frozen and sliced transversally in a cryostat. The slices were exposed to PhosphoImager plates over night. The resulting autoradiographic signals were analyzed qualitatively and quantitatively (FIG. 2.1 A and C, 2.2 A and C). […] To determine the specificity of the [^18F]-2d and [^18F]-5d binding, kainic acid treated rats were co-injected with [^19F]-2e and [^19F]-5e, respectively.
The autoradiographic signals were quantified. The signal intensity in a hippocampal region of interest (ROI) was measured and compared to a ROI in the cerebellum, that was used as reference region.

## COc1ccc(OCC[18F])c(CN(C(C)=O)c2cccnc2Oc2cccc(C)c2C)c1 [[^18F]-5d, N-[2-(2,3-dimethylphenoxy)pyridin-3-yl]-N-[2-(2-[^18F]fluoroethoxy)-5-methoxybenzyl]acetamide]
[1]; 30 min
  [^18F]-radioactivity in stomach: 3.01 ± 0.70 % injected dose/g
  [^18F]-radioactivity in testes: 0.75 ± 0.19 % injected dose/g
  [^18F]-radioactivity in thyroid: 3.81 ± 0.42 % injected dose/g
[1]; 60 min
  [^18F]-radioactivity in adrenals: 16.66 ± 2.86 % injected dose/g
  [^18F]-radioactivity in blood: 0.75 ± 0.01 % injected dose/g
  [^18F]-radioactivity in bone: 1.69 ± 0.26 % injected dose/g
  [^18F]-radioactivity in brain (brain uptake): 0.34 ± 0.06 % injected dose/g
  [^18F]-radioactivity in fat: 3.27 ± 0.30 % injected dose/g
  [^18F]-radioactivity in heart: 5.76 ± 0.87 % injected dose/g
  [^18F]-radioactivity in intestine: 3.31 ± 0.16 % injected dose/g
  [^18F]-radioactivity in kidney: 9.57 ± 0.76 % injected dose/g
  [^18F]-radioactivity in liver: 2.35 ± 0.35 % injected dose/g
  [^18F]-radioactivity in lung: 6.46 ± 1.07 % injected dose/g
  [^18F]-radioactivity in muscle: 2.13 ± 0.21 % injected dose/g
  [^18F]-radioactivity in pancreas: 2.34 ± 0.48 % injected dose/g
  [^18F]-radioactivity in skin: 1.39 ± 0.10 % injected dose/g
  [^18F]-radioactivity in spleen: 5.79 ± 0.10 % injected dose/g
  [^18F]-radioactivity in stomach: 4.21 ± 0.25 % injected dose/g
  [^18F]-radioactivity in testes: 0.90 ± 0.10 % injected dose/g
  [^18F]-radioactivity in thyroid: 3.21 ± 0.75 % injected dose/g
[1]; 240 min
  [^18F]-radioactivity in adrenals: 13.93 ± 6.07 % injected dose/g
  [^18F]-radioactivity in blood: 0.60 ± 0.07 % injected dose/g
  [^18F]-radioactivity in bone: 2.6 % injected dose/g and 2.59 ± 0.56 % injected dose/g
  [^18F]-radioactivity in brain (brain uptake): 0.32 ± 0.08 % injected dose/g
  [^18F]-radioactivity in fat: 0.86 ± 0.10 % injected dose/g
  [^18F]-radioactivity in heart: 2.21 ± 0.24 % injected dose/g
  [^18F]-radioactivity in intestine: 3.96 ± 0.16 % injected dose/g
  [^18F]-radioactivity in kidney: 6.84 ± 0.69 % injected dose/g
  [^18F]-radioactivity in liver: 1.76 ± 0.23 % injected dose/g
  [^18F]-radioactivity in lung: 3.42 ± 0.73 % injected dose/g
  [^18F]-radioactivity in muscle: 1.32 ± 0.11 % injected dose/g
  [^18F]-radioactivity in pancreas: 1.41 ± 0.22 % injected dose/g
  [^18F]-radioactivity in skin: 1.47 ± 0.06 % injected dose/g
  [^18F]-radioactivity in spleen: 3.02 ± 0.25 % injected dose/g
  [^18F]-radioactivity in stomach: 3.43 ± 0.54 % injected dose/g
  [^18F]-radioactivity in testes: 0.94 ± 0.12 % injected dose/g
  [^18F]-radioactivity in thyroid: 2.50 ± 0.15 % injected dose/g
[2]; 2 min
  Excretion of [^18F]-radioactivity via faeces: 0.00 ± 0.00 % injected dose
  Excretion of [^18F]-radioactivity via urine: 0.02 ± 0.02 % injected dose
[2]; 5 min
  Excretion of [^18F]-radioactivity via faeces: 0.00 ± 0.00 % injected dose
  Excretion of [^18F]-radioactivity via urine: 0.04 ± 0.00 % injected dose
[2]; 30 min
  Excretion of [^18F]-radioactivity via faeces: 0.03 ± 0.02 % injected dose
  Excretion of [^18F]-radioactivity via urine: 2.33 ± 1.20 % injected dose
[2]; 60 min
  Excretion of [^18F]-radioactivity via faeces: 0.04 ± 0.02 % injected dose
  Excretion of [^18F]-radioactivity via urine: 4.21 ± 0.97 % injected dose
[2]; 240 min
  Excretion of [^18F]-radioactivity via faeces: 0.74±1.01 % injected dose
  Excretion of [^18F]-radioactivity via urine: 15.24±1.25 % injected dose
[3]; kainic acid treated rats, co-injected with [^19F]-2e and [^19F]-5e, respectively
  Specificity of binding: autoradiographic signal on co-injection of the corresponding [^19F] compound: significantly reduced autoradiographic signal
[3]
  Hipp/Cereb ratio (signal-to-background ratio, hippocampus/cerebellum): 3.0 ± 0.9
[3]; listed as 5d
  Hipp/Cereb ratio (signal-to-background ratio, hippocampus/cerebellum): 3.0±0.9
